Measurements: patent US20090325952A1, “PYRAZOLO[3,4-B]PYRIDINE COMPOUNDS, AND THEIR USE AS PDE4 INHIBITORS” (Glaxo Group Limited, priority 2006, published 2009)

Columns and labels:
PDE3 (from bovine aorta) = assay: Inhibition of PDE3 activity (FP or SPA assays); assay type: biochemical; settings: selectivity PDE4B over PDE3
Text: PDE3 can be purified from bovine aorta as described by H. Coste and P. Grondin, “Characterisation of a novel potent and specific inhibitor of type V phosphodiesterase”, Biochem. Pharmacol., 1995, 50, 1577-1585.
(§1) The ability of compounds to inhibit catalytic activity at PDE4B or 4D (human recombinant), PDE3 (from bovine aorta), PDE5 (human recombinant) or PDE6 (from bovine retina) can optionally be determined by Scintillation Proximity Assay (SPA) in a 96-well format.
Test compounds (as a solution in DMSO, suitably about 2 microlitre (ul) volume of DMSO solution) are preincubated at ambient temperature (room temperature, e.g. 19-23° C.) in Wallac Isoplates (code 1450-514) with PDE enzyme in 50 mM Tris-HCl buffer pH 7.5, 8.3 mM MgCl2, 1.7 mM EGTA, 0.05% (w/v) bovine serum albumin for 10-30 minutes (usually 30 minutes). The enzyme concentration is adjusted so that no more than 20% hydrolysis of the substrate defined below occurs in control wells without compound, during the incubation. […] Bound radioactive product is measured using a WALLAC TRILUX 1450 Microbeta scintillation counter. […] Curves are analysed using ActivityBase and XLfit (ID Business Solutions Limited, 2 Ocean Court, Surrey Research Park, Guildford, Surrey GU2 7QB, United Kingdom) Results are expressed as pIC50 values. […]

[1] = molecular target: T1, PDE6 (from bovine retina) (Bos taurus, UniProt P11541+P23439); assay: Inhibition of PDE6 activity (FP or SPA assays); assay type: biochemical; settings: selectivity PDE4B over PDE6
T1 construct: PDE6 can be purified from bovine retina; from tissue; host or cells: bovine retina
T1 sequence (P11541 2-856 limits assumed): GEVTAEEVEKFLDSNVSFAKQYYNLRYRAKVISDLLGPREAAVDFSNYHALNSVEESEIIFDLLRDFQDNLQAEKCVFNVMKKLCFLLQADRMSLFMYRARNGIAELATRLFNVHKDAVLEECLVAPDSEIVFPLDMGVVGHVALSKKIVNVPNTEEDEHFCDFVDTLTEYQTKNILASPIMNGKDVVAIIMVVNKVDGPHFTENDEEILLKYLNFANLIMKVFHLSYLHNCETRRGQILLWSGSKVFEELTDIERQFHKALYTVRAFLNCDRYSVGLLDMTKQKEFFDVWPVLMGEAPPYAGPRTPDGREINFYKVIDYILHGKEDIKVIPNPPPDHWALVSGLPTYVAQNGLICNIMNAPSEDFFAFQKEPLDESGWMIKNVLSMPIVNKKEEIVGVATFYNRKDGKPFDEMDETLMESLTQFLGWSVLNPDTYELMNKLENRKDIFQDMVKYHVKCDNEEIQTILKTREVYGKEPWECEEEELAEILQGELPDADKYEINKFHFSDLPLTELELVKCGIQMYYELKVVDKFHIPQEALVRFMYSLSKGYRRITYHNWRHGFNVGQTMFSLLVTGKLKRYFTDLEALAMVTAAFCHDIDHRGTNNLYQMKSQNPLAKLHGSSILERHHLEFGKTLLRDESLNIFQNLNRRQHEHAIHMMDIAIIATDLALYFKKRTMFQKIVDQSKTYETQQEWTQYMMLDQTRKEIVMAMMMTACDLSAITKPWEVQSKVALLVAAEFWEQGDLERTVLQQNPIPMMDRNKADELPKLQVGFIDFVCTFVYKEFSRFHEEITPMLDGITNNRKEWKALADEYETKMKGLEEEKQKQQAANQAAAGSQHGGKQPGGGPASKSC
T1 sequence (P23439 2-850 limits assumed): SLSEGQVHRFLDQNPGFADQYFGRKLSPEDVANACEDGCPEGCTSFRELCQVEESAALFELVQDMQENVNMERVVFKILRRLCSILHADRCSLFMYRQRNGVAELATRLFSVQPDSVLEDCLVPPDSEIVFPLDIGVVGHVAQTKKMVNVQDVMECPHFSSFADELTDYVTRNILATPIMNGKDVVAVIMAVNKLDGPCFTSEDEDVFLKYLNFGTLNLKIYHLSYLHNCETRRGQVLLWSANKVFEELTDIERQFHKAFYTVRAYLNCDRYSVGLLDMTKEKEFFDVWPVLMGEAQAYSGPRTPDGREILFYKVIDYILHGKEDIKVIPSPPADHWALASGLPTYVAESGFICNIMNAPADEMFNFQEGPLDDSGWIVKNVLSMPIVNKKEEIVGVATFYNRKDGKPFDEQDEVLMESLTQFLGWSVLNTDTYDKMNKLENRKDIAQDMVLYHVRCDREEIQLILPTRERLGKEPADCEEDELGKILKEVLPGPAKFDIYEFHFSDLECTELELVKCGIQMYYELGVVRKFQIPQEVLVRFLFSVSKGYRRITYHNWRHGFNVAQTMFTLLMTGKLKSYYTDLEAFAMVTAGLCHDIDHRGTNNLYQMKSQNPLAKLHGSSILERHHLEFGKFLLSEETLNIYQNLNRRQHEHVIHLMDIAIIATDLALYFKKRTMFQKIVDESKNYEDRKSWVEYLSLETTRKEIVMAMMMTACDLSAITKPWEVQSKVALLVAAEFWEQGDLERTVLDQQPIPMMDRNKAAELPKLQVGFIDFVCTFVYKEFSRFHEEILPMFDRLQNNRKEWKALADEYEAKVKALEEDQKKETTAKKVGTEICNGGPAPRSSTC
Text: PDE6 can be purified from bovine retina as described by: P. Catty and P. Deterre, “Activation and solubilization of the retinal cGMP-specific phosphodiesterase by limited proteolysis”, Eur. J. Biochem., 1991, 199, 263-269; A. Tar et al. “Purification of bovine retinal cGMP phosphodiesterase”, Methods in Enzymology, 1994, 238, 3-12; and/or D. Srivastava et al. “Effects of magnesium on cyclic GMP hydrolysis by the bovine retinal rod cyclic GMP phosphodiesterase”, Biochem. J, 1995, 308, 653-658.
as §1
Test compounds (as a solution in DMSO, suitably about 2 microlitre (ul) volume of DMSO solution) are preincubated at ambient temperature (room temperature, e.g. 19-23° C.) in Wallac Isoplates (code 1450-514) with PDE enzyme in 50 mM Tris-HCl buffer pH 7.5, 8.3 mM MgCl2, 1.7 mM EGTA, 0.05% (w/v) bovine serum albumin for 10-30 minutes (usually 30 minutes). The enzyme concentration is adjusted so that no more than 20% hydrolysis of the substrate defined below occurs in control wells without compound, during the incubation. […] Bound radioactive product is measured using a WALLAC TRILUX 1450 Microbeta scintillation counter. […]

CCc1nc2c(cnn2CC)c(NC2CCOCC2)c1CNC(=O)c1ccc(NC(=O)CCCCCCCN(C)CCO)cc1 [Example 1B, N-{[1,6-diethyl-4-(tetrahydro-2H-pyran-4-ylamino)-1H-pyrazolo[3,4-b]pyridin-5-yl]methyl}-4-({8-[(2-hydroxyethyl)(methyl)amino]octanoyl}amino)benzamide]
PDE4B inhibition compared with PDE3 inhibition (pIC50 values) (PDE3 (from bovine aorta)): inhibit PDE4B more strongly than they inhibit PDE3, PDE5 and PDE6
PDE4B inhibition compared with PDE6 inhibition (pIC50 values) [1]: inhibit PDE4B more strongly than they inhibit PDE3, PDE5 and PDE6
